Experimental data reported in patent US20240343762A1, “USE OF PROTON PUMP MODULATOR IN PREPARING REAGENT” (SHANGHAI QUIETD BIOTECHNOLOGY CO. LTD., priority 2021, published 2024).

What was measured:
[1] = tested on: APP/PS1 transgenic AD mice; assay: New object recognition test in APP/PS1 transgenic AD mice; type: in vivo, mouse; conditions: continuously for 1 week, mice of 10 months old
Method: A new object recognition test was carried out by an open field box (40×40×35 cm, made of blue opaque plastic) with reference to a behavior test scheme recorded by Leger, M., et al. Object recognition test in mice. Nat Protoc. 8, 2531-2537 (2013). On the first day, mice were put into the open field box to adapt for 10 min. On the second day, each mouse was lightly put in the center of the box, two similar objects (a battery I) were put in the central area and freely explore for 10 min, and then the mice were sent back to feeding cages. After 3 h, the mice were put back to the box again (one battery was replaced with a doll toy which was 10 cm high) for 10 min to carry out a memory retention test. A video was analyzed by Etho Vision XT 14 software, and the time for exploring new/old objects by the mice was recorded. The discrimination index was computed as (Tnovel−Tfamliar)/(Tnovel+Tfamiliar).
APP/PS1 transgenic mice of 10 months old (purchased from MODEL ORGANISMS) were selected, and equally divided into three groups; the mice were administrated with a PBS buffer solution (group 2), […]

[2] = tested on: APP/PS1 transgenic AD mice; assay: Morris water maze test in APP/PS1 transgenic AD mice; type: in vivo, mouse; conditions: continuously for 1 week, mice of 10 months old
Method: Morris water maze referred to the test solutions recorded in Qing-Feng Wu et al., Fibroblast growth factor 13 is a microtubule-stabilizing protein modulating neuronal polarization and migration. Cell. 149, 1549-1564 (2012). The test was carried out in a circular pool filled with water (120 cm in diameter, 30 cm in depth, titanium dioxide was added to make opaque, kept temperature at 21±1° C.) in a room with a fixed environment. The test was divided into an adaptation period (1 day), a training period (5-6 days) and a testing period (1 day). Adaptation period: the platform was placed 0.5 cm above the water surface, and the mice were guided to the platform. Training day: the platform was placed 0.5 cm underwater, and the mice were trained to find the platform. […] Training were performed 4 times a day, 4 times a day (between 8:00 a.m. to 4:00 p.m.), the mice were dropped from different water points each time, each training was performed at interval of at least 30 min, a total of 6 days, and the order of water points was different every day. Test Day: test was performed 24 h after the end of the training day. […] The footage was analyzed with Etho Vision XT 14 software, recording parameters including the escape latency of entering the target quadrant, the number of platform crossings, and the dwell time in the target quadrant. […]

[3] = target: T1, murine ATP6V1B2 full-length protein (Mus musculus, UniProt P62814); assay: Co-immunoprecipitation of EGFP-tagged QD202 with Myc-tagged ATP6V1B2 full-length protein in 293 cells; type: binding
T1 construct: expressed in transfected cells; host or cells: 293 cells
Source text: Expression plasmids including murine ATP6V1B2 full-length sequence, 1-286aa truncated sequence or 1-172aa truncated sequence with a Myc tag are respectively constructed; the amino acid sequence of the murine ATP6V1B2 full-length sequence was as set forth in SEQ ID NO. 8, the amino acid sequence of the murine ATP6V1B21-286aa was as set forth in SEQ ID NO. 10; the amino acid sequence of the murine ATP6V1B21-172aa as set forth in as SEQ ID NO. 11; and these plasmids were respectively called as an ATP6V1B2 full-length expression plasmid, an ATP6V1B21-286aa expression plasmid and an ATP6V1B21-172aa expression plasmid. Meanwhile, a QD202 expression plasmid with an EGFP tag was constructed. […]
Then a Protein G agarose bead was added to be bound to the Myc antibody, so as to precipitate the ATP6V1B2 full-length protein, the 1-286aa truncated sequence or the 1-172aa truncated sequence, and proteins which were bound to one another, and finally the proteins subjected to co-immunoprecipitation was detected by virtue of an immunoblotting method.

[4] = tested on: hippocampal CA1 pyramidal neurons; assay: Whole-cell patch-clamp recording of spontaneous excitatory postsynaptic current (sEPSC) in hippocampus brain slice; type: cell-based, mouse; conditions: sEPSC at -70 mV, perfusion for 5 min; 5 μM in Embodiment 3
Method: 0.1-0.15 ml of 20% ethyl carbamate was injected into the abdominal cavity of a C57 mouse of 2 to 3 months old for anesthesia; a head was quickly cut, and brain tissues were stripped and put into artificial cerebrospinal fluid (ACSF) ice-water mixed liquid into which mixed gas (95% O2 and 5% CO2) was introduced in advance, and stood for 2 min; the ACSF included the following components: […] of NaCl, […] of KCl, 0.12 mM of NaH2PO4, 0.25 mM of CaCl2), 0.12 mM of MgCl2, 25 mM of NaHCO3 and 11 mM of glucose. A hippocampus coronal brain slice of 350 μm was cut by a vibration slicer. The hippocampus coronal brain slice was placed into the ACSF at room temperature for more than 30 min for recovery, and then the brain slice was put into a record slot; continuous perfusing was performed at a speed of 2 to 2.5 ml/min by the ACSF into which the mixed gas was introduced; blind-binding sealing was performed on hippocampus CA1 pyramidal neuron under an Olympic BX51 upright microscope; whole-cell patch-clamp was performed by an Axon700B amplifier and a 1550B digital-to-analog converter; spontaneous excitatory postsynaptic current (sEPSC) of the pyramidal neuron was recorded by a voltage clamp under the clamp voltage of −70 mV; after recording for 5 min, synthetic polypeptides such as 5 μM QD202 or QD202 N′-1, C′-1 and C′-2 for 5 min; and then perfusing and flushing were performed for 10 min by the ACSF. The recorded data was analyzed by Minianalysis software. […]

T1 sequence (P62814 whole entry): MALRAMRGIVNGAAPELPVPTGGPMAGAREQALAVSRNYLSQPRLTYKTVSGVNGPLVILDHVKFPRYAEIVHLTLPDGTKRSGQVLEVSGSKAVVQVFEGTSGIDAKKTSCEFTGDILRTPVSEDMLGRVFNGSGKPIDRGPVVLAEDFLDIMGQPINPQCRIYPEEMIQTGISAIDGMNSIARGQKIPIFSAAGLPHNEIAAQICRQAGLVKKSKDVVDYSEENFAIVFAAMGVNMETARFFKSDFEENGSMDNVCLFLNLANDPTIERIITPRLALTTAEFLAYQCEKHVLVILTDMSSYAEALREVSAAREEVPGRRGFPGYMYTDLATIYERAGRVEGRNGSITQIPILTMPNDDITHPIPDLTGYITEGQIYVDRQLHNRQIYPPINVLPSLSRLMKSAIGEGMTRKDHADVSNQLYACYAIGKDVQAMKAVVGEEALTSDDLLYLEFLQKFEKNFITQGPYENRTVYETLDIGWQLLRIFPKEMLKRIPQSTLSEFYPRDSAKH

## QD202: polypeptide synthesized according to the amino acid sequence as set forth in SEQ ID NO. 1 (YGRKKRRQRRRSPVDVVCS; QD202)
[1]; intragastric, 6.25 mg/kg
  learning and cognitive functions in new object recognition: obvious improvement of learning and cognitive functions
[1]; intravenous, 1.25 mg/kg
  learning and cognitive functions in new object recognition: obvious improvement on learning and cognitive functions
[2]; intragastric, 6.25 mg/kg
  learning and cognitive functions in water maze behavior: obvious improvement of learning and cognitive functions
[2]; intravenous, 1.25 mg/kg
  learning and cognitive functions in water maze behavior: obvious improvement on learning and cognitive functions
[3]; 293 cells, Myc antibody, immunoblotting
  binding to ATP6V1B2 full-length protein by co-immunoprecipitation: only the full-length ATP6V1B2 protein can be combined
[3]; concluded from full-length versus truncated sequences
  binding site of ATP6V1B2 and QD202: 288th amino acid to 512th amino acid
[4]
  excitatory postsynaptic current amplitude: no influence
  release frequency of excitatory postsynaptic current: increasing the release frequency
  spontaneous excitatory synaptic transmitter release of hippocampal CA1 neurons: can increase the spontaneous excitatory synaptic transmitter release
